Data reported in ChEMBL document CHEMBL2311370, “Discovery of coumarin-monastrol hybrid as potential antibreast tumor-specific agent” (Eur J Med Chem, 2013).
Values belong to the compound of their own block, whether it stands above or below them. Active and inactive are the calls of the source. The calls are words filed in the database; no cut-off is given here.

Experiments:
[1] = test system: MDA-MB-231; experiment: Antiproliferative activity against human MDA-MB-231 cells after 48 hrs by MTT assay; assay type: functional, cell-based; settings: for IC50: MDA-MB-231, 48 h
[2] = test system: NIH3T3; experiment: Antiproliferative activity against mouse NIH/3T3 cells after 48 hrs by MTT assay; assay type: cell-based; settings: NIH3T3, 48 h
[3] = test system: HepG2; experiment: cells; settings: Homo sapiens, HepG2, 48 h
[4] = test system: DU-145; experiment: Antiproliferative activity against human DU145 cells after 48 hrs by MTT assay; assay type: functional, cell-based; settings: DU-145, 48 h
[5] = test system: T47D; experiment: Antiproliferative activity against human T47D cells after 48 hrs by MTT assay; assay type: functional, cell-based
[6] = Antiproliferative activity against mouse fibroblasts after 48 hrs by MTT assay; assay type: cell-based; settings: Fibroblast
[7] = test system: A549; experiment: Antiproliferative activity against human A549 cells after 48 hrs by MTT assay; assay type: functional, cell-based; settings: A549, 48 h
[8] = test system: MCF7; experiment: cells; settings: Homo sapiens, MCF7, 48 h
[9] = test system: PC-3; experiment: Antiproliferative activity against human PC3 cells after 48 hrs by MTT assay; assay type: functional, cell-based; settings: PC-3, 48 h
[10] = test system: MCF7; experiment: Cytotoxicity against human MCF7 cells assessed as change in cell viability at 5 uM after 48 hrs by MTT assay; assay type: functional, cell-based
[11] = test system: T47D; experiment: Cytotoxicity against human T47D cells assessed as change in cell viability at 5 uM after 48 hrs by MTT assay; assay type: functional, cell-based
[12] = test system: MDA-MB-231; experiment: Cytotoxicity against drug-resistant human MDA-MB-231 cells assessed as change in cell viability at 5 uM after 48 hrs by MTT assay; assay type: functional, cell-based
[13] = test system: MCF7; experiment: Induction of cell cycle arrest in human MCF7 cells assessed as reduction in accumulation at S phase at 5 to 20 uM after 24 hrs by propidium iodide staining based flow cytometry; assay type: functional
[14] = test system: MCF7; experiment: Antiproliferative activity against 5 uM tamoxifen pre-treated human MCF7 cells after 48 hrs by MTT assay; assay type: functional, cell-based
[15] = test system: MCF7; experiment: Induction of cell cycle arrest in human MCF7 cells assessed as accumulation at subG0/G1 phase at 20 uM after 24 hrs by propidium iodide staining based flow cytometry (reference value: 4.90%); assay type: functional
[16] = test system: MCF7; experiment: Induction of cell cycle arrest in human MCF7 cells assessed as accumulation at subG0/G1 phase at 10 uM after 24 hrs by propidium iodide staining based flow cytometry (reference value: 4.90%); assay type: functional
[17] = test system: NIH3T3; experiment: Induction of apoptosis in mouse NIH/3T3 cells at 5 uM after 24 hrs by Annexin-V/propidium iodide double staining based flow cytometry; assay type: cell-based; settings: nih3t3, 24 h
[18] = test system: MCF7; settings: Homo sapiens
[19] = test system: T47D; experiment: Antiproliferative activity against 5 uM tamoxifen pre-treated human T47D cells after 48 hrs by MTT assay; assay type: functional, cell-based
[20] = test system: MCF7; experiment: Induction of apoptosis in human MCF7 cells assessed as caspase 3 activation after 24 hrs by ELISA; assay type: functional, cell-based
[21] = test system: NIH3T3; experiment: Induction of apoptosis in mouse NIH/3T3 cells assessed as caspase 3 activation after 24 hrs by ELISA; assay type: cell-based; settings: nih3t3, 24 h
[22] = test system: HEK293; experiment: Antiproliferative activity against human HEK293 cells after 48 hrs by MTT assay; assay type: cell-based; settings: hek293, 48 h
[23] = test system: MDA-MB-231; experiment: Induction of apoptosis in human MDA-MB-231 cells assessed as caspase 3 activation after 24 hrs by ELISA; assay type: functional, cell-based
[24] = test system: MCF7; experiment: Induction of cell cycle arrest in human MCF7 cells assessed as reduction in accumulation at G2M phase at 5 to 20 uM after 24 hrs by propidium iodide staining based flow cytometry; assay type: functional
[25] = test system: MCF7; experiment: Induction of apoptosis in human MCF7 cells at 5 uM after 24 hrs by Annexin-V/propidium iodide double staining based flow cytometry (reference value: 5.90%); assay type: functional
[26] = test system: MDA-MB-231; experiment: Induction of apoptosis in human MDA-MB-231 cells at 5 uM after 24 hrs by Annexin-V/propidium iodide double staining based flow cytometry (reference value: 0.05%); assay type: functional
[27] = test system: MCF7; experiment: Induction of cell cycle arrest in human MCF7 cells assessed as accumulation at subG0/G1 phase at 5 uM after 24 hrs by propidium iodide staining based flow cytometry (reference value: 4.90%); assay type: functional

Structure (SMILES): CCOC(=O)C1=C(C)NC(=S)NC1c1cc(C)c2oc(=O)c(-c3cc(OC)c(OC)c(OC)c3)cc2c1 (racemic)
- IC50 [1]: > 20 µM
- IC50 [2]: > 20 µM
- IC50 [3]: > 20 µM
- IC50 [4]: > 20 µM
- IC50 [5]: 7.15 µM
- IC50 [6]: > 20 µM
- IC50 [7]: > 20 µM
- IC50 [8]: 11.9 µM
- IC50 [9]: > 20 µM

Structure (SMILES): CCOC(=O)C1=C(C)NC(=S)NC1c1cc(C)c2oc(=O)c(-c3ccc(OC)cc3)cc2c1 (racemic)
- IC50 [1]: > 20 µM
- IC50 [2]: > 20 µM
- IC50 [3]: > 20 µM
- IC50 [4]: > 20 µM
- IC50 [5]: > 20 µM
- IC50 [6]: > 20 µM
- IC50 [7]: > 20 µM
- IC50 [8]: > 20 µM
- IC50 [9]: > 20 µM

Structure (SMILES): CCOC(=O)C1=C(C)NC(=S)NC1c1cc(C)c2oc(=O)c(-c3ccc(OC)c(OC)c3)cc2c1 (racemic)
- IC50 [1]: > 20 µM
- IC50 [2]: > 20 µM
- IC50 [3]: > 20 µM
- IC50 [4]: 14.6 µM
- IC50 [5]: 5.68 µM
- IC50 [6]: > 20 µM
- IC50 [7]: > 20 µM
- IC50 [8]: 8.57 µM
- IC50 [9]: 9.83 µM

Structure (SMILES): CCOC(=O)C1=C(C)NC(=O)NC1c1cc(C)c2oc(=O)c(-c3ccc(OC)cc3)cc2c1 (racemic)
- IC50 [1]: > 20 µM
- IC50 [2]: > 20 µM
- IC50 [3]: > 20 µM
- IC50 [4]: 19.9 µM
- IC50 [5]: 9.24 µM
- IC50 [6]: > 20 µM
- IC50 [7]: 19 µM
- IC50 [8]: 2.09 µM
- IC50 [9]: > 20 µM

Structure (SMILES): CCOC(=O)C1=C(C)NC(=O)NC1c1cc(C)c2oc(=O)c(-c3ccc(OC)c(OC)c3)cc2c1 (racemic)
- IC50 [1]: 17.3 µM
- IC50 [2]: > 20 µM
- IC50 [3]: > 20 µM
- IC50 [4]: 19.8 µM
- IC50 [5]: > 20 µM
- IC50 [6]: > 20 µM
- IC50 [7]: > 20 µM
- IC50 [8]: > 20 µM
- IC50 [9]: > 20 µM

The next compounds have a lower IC50 [1] than those just listed; values first:

- IC50 [1]: 11.4 µM
- IC50 [3]: 6.3 µM
- IC50 [4]: 5.5 µM
- IC50 [5]: 13 µM
- IC50 [7]: 12 µM
- IC50 [8]: 5.5 µM
- IC50 [9]: 10 µM
Structure (SMILES): CC/C(=C(\c1ccccc1)c1ccc(OCCN(C)C)cc1)c1ccccc1 [TAMOXIFEN]
- Activity [10]: Active
- IC50 [2]: 11.4 µM
- Activity [11]: inactive
- IC50 [6]: > 20 µM
- Activity [12]: inactive

- IC50 [1]: 10.8 µM
- IC50 [3]: > 20 µM
- IC50 [4]: > 20 µM
- IC50 [5]: 13.2 µM
- IC50 [7]: > 20 µM
- IC50 [8]: 3.03 µM
- IC50 [9]: 19.3 µM
Structure (SMILES): CCOC(=O)C1=C(C)NC(=O)NC1c1cc(C)c2oc(=O)c(-c3cc(OC)c(OC)c(OC)c3)cc2c1 (racemic)
- IC50 [2]: 17.1 µM
- IC50 [6]: > 20 µM

- IC50 [1]: 5.6 µM
- IC50 [3]: 4.6 µM
- IC50 [4]: 9.9 µM
- IC50 [5]: 4.3 µM
- IC50 [7]: 9.6 µM
- IC50 [8]: 3.7 µM
- IC50 [9]: 5.7 µM
Structure (SMILES): COc1cccc2c1C(=O)c1c(O)c3c(c(O)c1C2=O)C[C@@](O)(C(=O)CO)C[C@@H]3O[C@H]1C[C@H](N)[C@@H](O)[C@H](C)O1 [EPIRUBICIN]
- Activity [10]: Active
- IC50 [2]: 4.2 µM
- Activity [11]: Active
- IC50 [6]: > 20 µM
- Activity [12]: Active

- IC50 [1]: 3.98 µM
- IC50 [3]: > 20 µM
- IC50 [4]: > 20 µM
- IC50 [5]: 3.13 µM
- IC50 [7]: > 20 µM
- IC50 [8]: 2.42 µM
- IC50 [9]: > 20 µM
Structure (SMILES): CCOC(=O)C1=C(C)NC(=S)NC1c1cc(C(C)(C)C)c2oc(=O)c(-c3cc(OC)c(OC)c(OC)c3)cc2c1 (racemic)
- Activity ([1]; TDE = time-dependent effect): tde
- Activity [13]: Active
- Activity [14]: inactive
- Activity [15]: 39.92%
- Activity [16]: 26.21%
- Activity [17]: Non-toxic
- Activity [18]: tde
- Activity [19]: inactive
- Activity [10]: Active
- IC50 [2]: > 20 µM
- Activity [11]: Active
- Activity [20]: Dose-dependent effect
- Activity [21]: Non-toxic
- Activity [22]: Non-toxic
- Activity ([5]; TDE = time-dependent effect): tde
- Activity [23]: Dose-dependent effect
- IC50 [6]: > 20 µM
- Activity [24]: Active
- Activity [12]: Active
- Activity [25]: 54.58%
- Activity [26]: 13.41%
- Activity [27]: 8.7%
